Measurements as given in patent US20060194815A1, “Methods and compositions for modulating serum cortisol levels” (priority 2003, published 2006).

System: Y1 mouse adrenal tumor cells
Test: dbcAMP-induced 20á-hydroxyprogesterone synthesis in Y1 cells (RIA)
Type: cell-based
Procedure: Culture media were then changed and cells were stimulated with 1 mM dbcAMP and the treatment for 24 to 48 hours. […] The synthesis of 20-OH progesterone and progesterone in Y1 and MA-10 cell media respectively were measured by RIA (Brown et al., 1992). H295R human adrenal tumor cells were seeded in 48-well plates at 10^5 cells/well and incubated for 24 hours. […] At the end of the incubation time period, cells were treated with 1 mM dbcAMP for 48 hours. Cortisol levels in the media were determined by radioimmunoassay as previously described (Amri et al., 1996).

In the case of `CC1CN(C(=O)C(Cc2c[nH]c3ccccc23)NC(=O)c2ccc([N+](=O)[O-])cc2)CCN1C(=O)C1CC1` (stereo not drawn) [SP010, N-[2-(4-cyclopropanecarbonyl-3-methyl-piperazin-1-yl)-1-(1H-indol-3-yl-methyl)-2-oxo-ethyl]-4-nitro-benzamide], the “efficacy on Y1 adrenocortical cells across concentrations” value (1, 10 and 100 iM) is reported as “maintained the same efficacy”, the “dbcAMP-induced 20á-hydroxyprogesterone production” value (Y1 cells, 1 mM dbcAMP, increasing concentrations) is reported as “decreased in a dose-dependent manner” and the “potency compared with procaine on cAMP-corticosteroid formation” value (even at a concentration as low as 1 μM) is reported as “as potent as procaine”.
